# Assay results: publication PMC9782470, “Clickable C-Glycosyl Scaffold for the Development of a Dual Fluorescent and [^18F]fluorinated Cyanine-Containing Probe and Preliminary In Vitro/Vivo Evaluation by Fluorescence Imaging” (Pharmaceuticals, 2022)
# Key:
# [1] = target: T1, αvβ3 integrin (Homo sapiens, UniProt P05106+P06756); assay: Integrin αvβ3 solid-phase binding assay (competition with coated vitronectin); settings: coated human vitronectin 1 µg/mL, integrin αvβ3 2 µg/mL, compounds 1.6 nM–20 µM, 1 h room temperature, OD 450 nm, 3 independent series in duplicate, ± SD in Figure 2, read-out: IC50, binding of αvβ3 integrin onto vitronectin
# T1 construct: purchased Bio-techne, Lille, France
# Method: The affinity of the compounds for integrin protein was evaluated in terms of the half maximal inhibitory concentration (IC50 values) using a solid-phase assay, as previously described by Tobias G. Kapp et al.. Briefly, the surface of Maxisorp microplates (NUNC, ThermoFicher Scientific, Paris, France) was coated with 1 µg/mL human vitronectin (Bio-techne, Lille, France) overnight at +4 °C. The non-specific sites were blocked with a TSB buffer (20 mM Tris-HCl, 150 mM NaCl, 1 mM CaCl2, 1 mM MgCl2, 1 mM MnCl2, pH 7.5, 1% BSA) (Sigma-Aldrich, Saint-Quentin-Fallavier, France) for 1 h at 37 °C. […] After 1 h incubation at room temperature, the plates were washed, and the amount of bound integrin was stained by incubation with 2 µg/mL of mouse anti-human CD51/61 (BD Pharmingen, Paris, France) and 1 µg/mL of anti-mouse IgG horseradish peroxidase conjugate antibody (Bio-techne, France). The enzymatic reaction was carried out in the dark by the addition of the enzyme substrate (Bio-techne, France) and stopped after 10 min by the addition of H2SO4 (Stop Solution, Bio-techne, France). The optical densities were measured at 450 nm. The values were blank subtracted, and the results were expressed as relative absorbance percentage in comparison to the wells containing only integrin αvβ3.
# Affinities were estimated from 3 independent series performed in duplicate as IC50 values (i.e., the concentration of the compounds that displaced 50% of integrin binding calculated using one-site fit log-IC50 non-linear analysis regression using the GraphPad Prism 6 software (v 6.05, USA)).
# Figure 2 Solid-phase binding assay.
# [2] = test system: U-87 MG cells; assay: Cellular uptake, quantification of Cy5 incorporation; assay type: cell-based, human; settings: 24 h of incubation; Cy5 fluorescence of DMSO cell lysate (λex 645, λem 680 nm), calibration curve of each compound; n = 3
# Method: Cellular uptake was evaluated using a confocal microscopy on U-87 MG spheroids after 1, 4, and 24 h of exposure with conjugates 23 and 24 and c(RGDfK)-Cy5 (25) at 1 µM. The fluorescence signal appeared to be stable over time and the distribution of the compounds was homogeneous over all cells and throughout the spheroids (Figure 3A). These three compounds were localized rapidly in the cell cytoplasm due to receptor internalization after ligand binding. As expected from photophysical properties, the fluorescence signal was higher for compound 24 compared to 23. […] The amount of compounds seemed to decrease slightly at 4 h but stayed relatively stable until 24 h and represented 25.8, 14.7, and 28.6 pmoles/10^6 cells, respectively, for compounds 23, 24 and 25. […]
# U-87 MG cells were seeded in 12 multi-well plates at 10 × 10^4 cells/cm^2 and cultivated for 48 h. […] The fluorescence signals of Cy5 in the samples were measured in duplicate at an excitation wavelength of 645/9 nm and an emission wavelength of 680/20 nm (Tecan Infinite M200 Pro spectrofluorometer, Tecan, Männedorf, Switzerland). The fluorescence signals of known concentrations of Cy5-conjugates diluted in DMSO were used to draw a standard calibration curve. The concentration of Cy5 present in the samples (nM) was determined from the linear regression analysis of the standard calibration curve (Equation (1)). […] The results of the cellular uptake were expressed as the concentration of Cy5 (nM) incorporated per one million of cells (Equation (2)). […] (nM) = f (Fluorescence Intensity)(1) [Cy5] […]
# Figure 3 Cellular uptake of fluorescent conjugates 23 and 24. […] The intrinsic fluorescence of the compounds corresponds to Cyanine 5 (red fluorescence, λex 631/28 nm, λem 692/40 nm). […] (B) Quantification of Cy5 incorporation by U-87 MG cells at 1, 4, and 24 h of incubation. The amount of each compound was calculated using the fluorescence of Cy5 extrapolated from the calibration curves of each compound and normalized to 10^6 cells. n = 3.
# [3] = Absorption and fluorescence measurements; assay type: physicochemical; settings: for relative fluorescence quantum yield Φfluo: PBS pH 7.4, relative to commercial Cy5.Cl, λex = 640 nm, absorbance lower than 0.1; for Stokes shift Δs fluo / λem / λabs: aqueous PBS buffer 0.01 M, pH 7.4, T = 298 K; for λabs: diluted solution (µM)
# Method: Photophysical properties (absorption, excitation, emission, and relative fluorescence quantum yield) of compounds 23 and 24 were measured in an aqueous PBS buffer solution (pH = 7.4, T = 298 K) and compared to the commercially available Cy5 to detect any potential degradation that could occur during the synthesis and purification steps. […] (λabs/λem = 648/662 nm, Δs fluo = 326 cm^−1 for 23, λabs/λem = 644/658 nm, Δs fluo = 330 cm^−1 for 24).
# Absorption spectra were recorded in diluted solution (µM) in an aqueous PBS buffer (0.01 M, pH 7.4). Fluorescence quantum yields Φfluo were measured in diluted solutions with an absorbance lower than 0.1 using the following equation: ϕfluo, x=ϕfluo,ref(Gradx/Gradref)(nx2/nref2) where Φfluo is the fluorescence quantum yield; Grad is the gradient from the plot of integrated fluorescence intensity vs. absorbance; n the refractive index of the solvent; and the subscripts x and ref denote sample and reference. The fluorescence quantum yields of 23 and 24 were measured relative to the commercial Cy5.Cl in PBS for which Φfluo,ref = 0.13 [36]. The excitation of the reference and sample compounds was performed at the same wavelength (λex = 640 nm).
# [4] = Solubility in aqueous solution; assay type: physicochemical; settings: result in words
# [5] = test system: ectopic U-87 MG tumors; assay type: in vivo, female athymic nude mice
# Method: (§1) In order to evaluate the in vivo biodistribution and tumor uptake of compound 24, which has the best photophysical and solubility properties in comparison to compound 23, mice bearing ectopic or orthotopic brain tumors were imaged in NIRF using a fluorescent small animal imager. […] Animal experiments were performed in accordance with the protocols approved by the French Ministry of Research after a review by the local animal protection and use committee (APAFIS# 30902). For ectopic tumor biodistribution, a U-87 MG tumor model was established by subcutaneous injection of U-87 MG cells (2 × 10^6 in 100 µL of 5% glucose solution) into the front right flank of female athymic nude mice (Charles Rivers, Wilmington, MA, USA). The mice were subjected to imaging studies when the tumor volume reached 500 mm^3 (3–4 wk after inoculation) at 1, 4, 6, and 24 h after the intravenous administration of the compounds 24 and 25 at 0.5 nmoles in 100 µL of water for injections mixed with ethanol (20% EtOH/80% water). For brain tumor imaging, U-87 MG spheroids of approximatively 500 µm diameter were implanted in the cortex of the right hemisphere and imaged 24 h after the administration of 0.5 nmoles of the compound 24 or 25. In the same manner, major organs were harvested and subjected to small animal NIRF imaging (Fluorvivo, Indec Biosystem, Los Altos, CA, USA). A customized filter set (excitation, 510–550 nm; emission, 630–690 nm) was used for data acquisition. All fluorescence images were acquired with a 1-s exposure. The fluorescence intensity of each tissue was measured after subtraction of the background signal from an ROI of the same size and shape drawn over an area without any tissue using imageJ. Figure 4 Biodistribution of compounds 24 and 25 in tumors and organs. (A) Kinetic distribution of compounds 24 and 25 in ectopic U-87 MG tumors at 1, 4, 6, and 24 h (representative images of the whole mice with the solid arrows showing the ectopic tumors at 24 h). (B) Biodistribution of the compounds in major organs at 24 h after their administration. […] An average of ratio uptake was calculated. […]
# [6] = test system: orthotopic U-87 MG brain tumor; assay type: in vivo, female athymic nude mice; settings: 24 h after intravenous administration of 0.5 nmoles; NIRF imaging; average of ratio uptake
# Method: as §1
# [7] = cited from earlier work
# Method: Photophysical properties (absorption, excitation, emission, and relative fluorescence quantum yield) of compounds 23 and 24 were measured in an aqueous PBS buffer solution (pH = 7.4, T = 298 K) and compared to the commercially available Cy5 to detect any potential degradation that could occur during the synthesis and purification steps. […] (λabs/λem = 648/662 nm, Δs fluo = 326 cm^−1 for 23, λabs/λem = 644/658 nm, Δs fluo = 330 cm^−1 for 24). Conjugation of the ... || Absorption spectra were recorded in diluted solution (µM) in an aqueous PBS buffer (0.01 M, pH 7.4). Fluorescence quantum yields Φfluo were measured in diluted solutions with an absorbance lower than 0.1 using the following equation: ϕfluo, x=ϕfluo,ref(Gradx/Gradref)(nx2/nref2) where Φfluo is the fluorescence quantum yield; Grad is the gradient from the plot of integrated fluorescence intensity vs. absorbance; n the refractive index of the solvent; and the subscripts x and ref denote sample and reference. The fluorescence quantum yields of 23 and 24 were measured relative to the commercial Cy5 ...
IC50 [1] [µM],SMILES,amount of compound incorporated by U-87 MG cells [2] [pmoles/10^6 cells],relative fluorescence quantum yield Φfluo [3] [%],Stokes shift Δs fluo [3] [cm⁻¹],λem [3] [nm],λabs [3] [nm],solubility in aqueous solution [4],"ratio of fluorescence uptake, ectopic tumor to healthy brain ([5]; 24 h after intravenous administration of 0.5 nmoles, NIRF imaging, average of ratio uptake) [fold]","route of elimination ([5]; mouse, in vivo)","ratio of fluorescence uptake, orthotopic brain tumor to healthy brain [6] [fold]",fluorescence quantum yield Φfluo of the reference ([7]; PBS) [%],"fluorescence quantum yield Φfluo,ref ([7]; in PBS, as fraction)"
0.01,CN1\C(=C/C=C/C=C/C2=[N+](CCCCCC(=O)NCCCn3cc(COCC[C@H]4O[C@H](CF)[C@@H](OCc5cn(CCCCCC(=O)NCCCC[C@@H]6NC(=O)[C@@H](Cc7ccccc7)NC(=O)[C@H](CC(=O)O)NC(=O)CNC(=O)[C@H](CCCNC(=N)N)NC6=O)nn5)[C@H]4OCc4cn(CCCCCC(=O)NCCCC[C@@H]5NC(=O)[C@@H](Cc6ccccc6)NC(=O)[C@H](CC(=O)O)NC(=O)CNC(=O)[C@H](CCCNC(=N)N)NC5=O)nn4)nn3)c3ccccc3C2(C)C)C(C)(C)c2ccccc21 [Compound 23],25.8,8,326,662,648,poor solubility,,,,,
0.016,CN1\C(=C/C=C/C=C/C2=[N+](CCCCCC(=O)NCCCn3cc(COCC[C@H]4O[C@H](CF)[C@@H](OCc5cn(CCOCCOCCOCCOCCC(=O)NCCCC[C@@H]6NC(=O)[C@@H](Cc7ccccc7)NC(=O)[C@H](CC(=O)O)NC(=O)CNC(=O)[C@H](CCCNC(=N)N)NC6=O)nn5)[C@H]4OCc4cn(CCOCCOCCOCCOCCC(=O)NCCCC[C@@H]5NC(=O)[C@@H](Cc6ccccc6)NC(=O)[C@H](CC(=O)O)NC(=O)CNC(=O)[C@H](CCCNC(=N)N)NC5=O)nn4)nn3)c3ccccc3C2(C)C)C(C)(C)c2ccccc21 [Compound 24],14.7,14,330,658,644,,100,urinary tract and liver metabolism,40,,
8.54,CN1C(=CC=CC=CC2=[N+](CCCCCC(=O)NCCCC[C@@H]3NC(=O)[C@@H](Cc4ccccc4)NC(=O)[C@H](CC(=O)O)NC(=O)CNC(=O)[C@H](CCCNC(=N)N)NC3=O)c3ccccc3C2(C)C)C(C)(C)c2ccccc21 [Compound 25],28.6,,,,,,,,,,
,CN1/C(=C/C=C/C=C/C2=[N+](CCCCCC(=O)O)c3ccccc3C2(C)C)C(C)(C)c2ccccc21 [Cy5],,,,,,,,,,13,0.13
